{"source": "ChEMBL document CHEMBL3351224", "about": "(ACS Med Chem Lett, 2014)", "key": {"[1]": {"biological_target": "T1, Cysteinyl leukotriene receptor 1 (Homo sapiens, UniProt Q9Y271)", "T1 sequence (Q9Y271 whole entry)": "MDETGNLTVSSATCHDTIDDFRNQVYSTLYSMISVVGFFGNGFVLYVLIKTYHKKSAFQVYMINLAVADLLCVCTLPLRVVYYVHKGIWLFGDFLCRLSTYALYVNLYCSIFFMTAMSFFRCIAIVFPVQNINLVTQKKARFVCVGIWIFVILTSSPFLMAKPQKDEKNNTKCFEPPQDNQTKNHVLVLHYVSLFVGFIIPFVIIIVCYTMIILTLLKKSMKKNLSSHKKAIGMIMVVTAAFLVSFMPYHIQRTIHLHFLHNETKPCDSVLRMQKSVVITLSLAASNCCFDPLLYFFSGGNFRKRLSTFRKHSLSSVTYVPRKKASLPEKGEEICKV", "experiment": "Antagonist activity at human CysLT1 receptor expressed in CHO cells assessed as inhibition of LTD4-inudced intracellular calcium influx preincubated for 30 mins before LTD4 addition by Fura2-AM assay", "assay_type": "functional, cell-based"}, "[2]": {"biological_target": "T2, Cysteinyl leukotriene receptor 2 (Homo sapiens, UniProt Q9NS75)", "T2 sequence (Q9NS75 whole entry)": "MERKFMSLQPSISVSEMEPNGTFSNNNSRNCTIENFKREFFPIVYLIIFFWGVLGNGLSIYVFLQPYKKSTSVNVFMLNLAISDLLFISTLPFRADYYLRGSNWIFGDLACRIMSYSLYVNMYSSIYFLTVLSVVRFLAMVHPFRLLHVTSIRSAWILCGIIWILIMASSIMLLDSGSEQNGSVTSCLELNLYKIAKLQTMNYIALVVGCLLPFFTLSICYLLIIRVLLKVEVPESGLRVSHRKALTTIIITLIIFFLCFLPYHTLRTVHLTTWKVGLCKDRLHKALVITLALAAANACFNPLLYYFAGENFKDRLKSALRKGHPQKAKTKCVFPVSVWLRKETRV", "experiment": "Antagonist activity at human CysLT2 receptor expressed in HEK293 cells assessed as inhibition of LTD4-inudced intracellular calcium influx preincubated for 30 mins before LTD4 addition by Fura2-AM assay", "assay_type": "functional, cell-based"}, "[3]": {"biological_target": "T3, Cysteinyl leukotriene receptor 2 (Homo sapiens) (UniProt Q9NS75)", "T3 sequence (whole entry)": "T2 sequence (Q9NS75 whole entry)", "experiment": "Antagonist activity at human CysLT2 receptor expressed in HEK293 cells assessed as inhibition of LTD4-inudced intracellular calcium influx preincubated at 10 uM for 30 mins before LTD4 addition by Fura2-AM assay", "assay_type": "functional, cell-based"}, "[4]": {"experiment": "AUC in rat at 30 mg/kg, po", "assay_type": "ADME, organism-based", "design": "dose 30 mg/kg, route oral", "details": "plasma"}, "[5]": {"experiment": "Oral bioavailability in rat at 30 mg/kg", "assay_type": "ADME, organism-based", "details": "in vivo"}, "[6]": {"experiment": "Clearance in rat at 1 mg/kg, iv", "assay_type": "ADME, organism-based", "design": "dose 1 mg/kg, route intravenous", "details": "in vivo"}, "[7]": {"experiment": "Half life in rat at 1 mg/kg, iv", "assay_type": "ADME, organism-based", "design": "dose 1 mg/kg, route intravenous", "details": "in vivo"}}}
{"smiles": "O=C(O)CCC(=O)N1CC(C(=O)O)Oc2c(NC(=O)c3ccc(OCCCCc4ccccc4)cc3)cccc21", "note": "(configuration not stated)", "values": [{"measurement": "IC50", "setting": "[1]", "result": 0.0014, "unit": "µM"}, {"measurement": "IC50", "setting": "[2]", "result": 0.89, "unit": "µM"}]}
{"smiles": "O=C(O)CCCC(=O)N1CC(C(=O)O)Oc2c(NC(=O)c3ccc(OCCCCc4ccccc4)cc3)cccc21", "note": "(configuration not stated)", "values": [{"measurement": "IC50", "setting": "[1]", "result": "< 0.001", "unit": "µM"}, {"measurement": "IC50", "setting": "[2]", "result": 1.8, "unit": "µM"}]}
{"smiles": "CC(=O)N1CC(C(=O)O)Oc2c(NC(=O)c3ccc(OCCCCc4ccccc4)cc3)cccc21", "note": "(configuration not stated)", "values": [{"measurement": "IC50", "setting": "[1]", "result": 0.013, "unit": "µM"}, {"measurement": "IC50", "setting": "[2]", "result": 3.6, "unit": "µM"}]}
{"smiles": "O=C(O)CCCN1CC(C(=O)O)Oc2c(NC(=O)c3ccc(OCCCc4ccccc4)cc3)cccc21", "note": "(configuration not stated)", "values": [{"measurement": "IC50", "setting": "[1]", "result": 1.3, "unit": "µM"}, {"measurement": "IC50", "setting": "[2]", "result": 0.068, "unit": "µM"}]}
{"smiles": "O=C(O)CCCCC(=O)N1CC(C(=O)O)Oc2c(NC(=O)c3ccc(OCCCCc4ccccc4)cc3)cccc21", "note": "(configuration not stated)", "values": [{"measurement": "IC50", "setting": "[1]", "result": 0.012, "unit": "µM"}, {"measurement": "IC50", "setting": "[2]", "result": 0.89, "unit": "µM"}]}
{"smiles": "O=C(Nc1ccc2c(c1)NCC(C(=O)O)O2)c1ccc(OCCCCc2ccccc2)cc1", "note": "(configuration not stated)", "values": [{"measurement": "IC50", "setting": "[1]", "result": 0.84, "unit": "µM"}, {"measurement": "inhibition", "setting": "[3]", "result": 25, "unit": "%"}]}
{"smiles": "O=C(O)CCCN1CC(C(=O)O)Oc2c(NC(=O)c3ccc(OCCOc4ccccc4)cc3)cccc21", "note": "(configuration not stated)", "values": [{"measurement": "IC50", "setting": "[1]", "result": 3, "unit": "µM"}, {"measurement": "IC50", "setting": "[2]", "result": 1.5, "unit": "µM"}]}
{"smiles": "O=C(O)c1ccc(OCCCc2ccc(OCCCCOc3ccccc3)cc2)c(C(=O)NC2CCCC(C(=O)O)C2)c1", "note": "(configuration not stated)", "values": [{"measurement": "IC50", "setting": "[1]", "result": "> 2.5", "unit": "µM"}, {"measurement": "IC50", "setting": "[2]", "result": 0.053, "unit": "µM"}]}
{"smiles": "O=C(O)CCCN1CC(C(=O)O)Oc2c(NC(=O)c3ccc(OCCCCc4ccccc4)cc3)cccc21", "note": "(configuration not stated)", "values": [{"measurement": "AUC", "setting": "[4]", "result": 1600, "unit": "ng·h/mL"}, {"measurement": "bioavailability", "setting": "[5]", "result": 1.5, "unit": "%"}, {"measurement": "clearance", "setting": "[6]", "result": 4.7, "unit": "mL/min/kg"}, {"measurement": "half-life", "setting": "[7]", "result": 3.4, "unit": "h"}]}
{"smiles": "O=C(Nc1ccc2c(c1)OC(C(=O)O)CN2)c1ccc(OCCCCc2ccccc2)cc1", "note": "(configuration not stated)", "values": [{"measurement": "IC50", "setting": "[1]", "result": 4.6, "unit": "µM"}, {"measurement": "inhibition", "setting": "[3]", "result": 36, "unit": "%"}]}
{"smiles": "O=C(O)CCCCCN1CC(C(=O)O)Oc2c(NC(=O)c3ccc(OCCCCc4ccccc4)cc3)cccc21", "note": "(configuration not stated)", "values": [{"measurement": "IC50", "setting": "[1]", "result": 0.13, "unit": "µM"}, {"measurement": "IC50", "setting": "[2]", "result": 0.29, "unit": "µM"}]}
{"smiles": "O=C(O)CCCN1CC(C(=O)O)Oc2c(NC(=O)c3ccc(OCCCOc4ccccc4)cc3)cccc21", "note": "(configuration not stated)", "values": [{"measurement": "IC50", "setting": "[1]", "result": 0.29, "unit": "µM"}, {"measurement": "IC50", "setting": "[2]", "result": 0.016, "unit": "µM"}]}
{"smiles": "CCCCC/C=C\\C\\C=C/C=C/C=C/[C@@H](Sc1ccc(C(=O)O)cc1)[C@@H](O)CCCC(=O)O", "values": [{"measurement": "IC50", "setting": "[1]", "result": 0.44, "unit": "µM"}, {"measurement": "IC50", "setting": "[2]", "result": 0.3, "unit": "µM"}]}
{"smiles": "O=C(O)CCCN1CC(C(=O)O)Oc2c(NC(=O)c3ccc(OCCCCOc4ccccc4)cc3)cccc21", "note": "(configuration not stated)", "values": [{"measurement": "IC50", "setting": "[1]", "result": 0.032, "unit": "µM"}, {"measurement": "IC50", "setting": "[2]", "result": 0.017, "unit": "µM"}]}
{"smiles": "CCN(CC)C(=O)/C=C(\\C)c1ccc2oc(C(=O)c3ccc(C#N)cc3)c(NC(=O)/C(C#N)=C(/C)O)c2c1", "values": [{"measurement": "IC50", "setting": "[1]", "result": 9.7, "unit": "µM"}, {"measurement": "IC50", "setting": "[2]", "result": 7.7, "unit": "µM"}]}
{"smiles": "CCC(=O)N1CC(C(=O)O)Oc2c(NC(=O)c3ccc(OCCCCc4ccccc4)cc3)cccc21", "note": "(configuration not stated)", "values": [{"measurement": "IC50", "setting": "[1]", "result": 0.15, "unit": "µM"}, {"measurement": "IC50", "setting": "[2]", "result": 5.2, "unit": "µM"}]}
{"smiles": "O=C(Nc1cccc2c1OC(C(=O)O)CN2)c1ccc(OCCCCc2ccccc2)cc1", "note": "(configuration not stated)", "values": [{"measurement": "IC50", "setting": "[1]", "result": 0.054, "unit": "µM"}, {"measurement": "IC50", "setting": "[2]", "result": 4.6, "unit": "µM"}]}
{"smiles": "O=C(O)CCCCN1CC(C(=O)O)Oc2c(NC(=O)c3ccc(OCCCCc4ccccc4)cc3)cccc21", "note": "(configuration not stated)", "values": [{"measurement": "IC50", "setting": "[1]", "result": 0.044, "unit": "µM"}, {"measurement": "IC50", "setting": "[2]", "result": 0.17, "unit": "µM"}]}
{"smiles": "CCCC(=O)N1CC(C(=O)O)Oc2c(NC(=O)c3ccc(OCCCCc4ccccc4)cc3)cccc21", "note": "(configuration not stated)", "values": [{"measurement": "IC50", "setting": "[1]", "result": 0.3, "unit": "µM"}, {"measurement": "IC50", "setting": "[2]", "result": 3.7, "unit": "µM"}]}
{"smiles": "O=C(O)CCCN1CC(C(=O)O)Oc2c(NC(=O)c3ccc(OCCCCCc4ccccc4)cc3)cccc21", "note": "(configuration not stated)", "values": [{"measurement": "IC50", "setting": "[1]", "result": 0.12, "unit": "µM"}, {"measurement": "IC50", "setting": "[2]", "result": 0.00062, "unit": "µM"}]}
